Earlier results on one compound are cited in patent US20250346572A1, “NON-ACID INHIBITORS OF INOSITOL HEXAKISPHOSPHATE KINASE (IP6K) AND METHODS OF USE THEREOF” (Lieber Institute, Inc., priority 2022, published 2025).

This data set deals with Mice treated with HFD. The note with it: HFD for 8 weeks, then daily intraperitoneal 20 mg/kg TNP and HFD for 18 days.

As for `O=[N+]([O-])c1ccc(CNc2nc(NCc3cccc(C(F)(F)F)c3)nc3nc[nH]c23)cc1` [TNP, N2-(m-trifluorobenzyl)-N6-(p-nitrobenzyl)purine], the “glucose tolerance and insulin sensitivity” value is “improved glucose tolerance and insulin sensitivity”; the serum insulin levels entry was “lower serum insulin levels”.
